Where two headings read alike, the source gives them in different places. Values belong to the molecule of their own block, whether it stands above or below them.
Target: Ashbya gossypii ICL (isocitrate lyase) (Eremothecium gossypii, UniProt O94198)
Assay: Colorimetric test of purified isocitrate lyase (ICL) activity with inhibitors
Format: biochemical
Details: for inhibition at 1000 µM: read-out: inhibition of ICL activity
Source text: In order to identify substances exerting an inhibitory effect on ICL, the Ashbya gossypii ICL was first of all purified. The enzyme was isolated and purified after the fungal mycelium had been grown on vegetable oil. […] Approximately 78% of this activity is recovered in dissolved form in the supernatant after centrifuging at 40,000 g. Subsequent fractionation by means of ammonium sulfate precipitation results in a three-fold enrichment of the enzyme. After gel filtration through a Sephacryl S-300 column, the ICL is bound to the cation exchange material Mono S-Sepharose and eluted with NaCl. The resulting preparation is homogeneous by SDS polyacrylamide gel electrophoresis and has a specific activity of 18.4 U/mg.
The purified enzyme can be used to measure the effects of substances on its activity in a […] test (Dixon, H. and Kornberg, H. L. (1959), Biochem. J. 72, 3: Assay methods for key enzymes of the glyoxylate cycle). The effects of the tested substances on the enzyme are summarized and depicted in Table 2 and FIG. 1, respectively. Substances to be investigated included those which, as metabolites in the fungal cell, could have an inhibitory effect on the enzyme.

[1] = purified enzyme, concentration of 10 mM

Sequence of Ashbya gossypii ICL (isocitrate lyase) (O94198 whole entry): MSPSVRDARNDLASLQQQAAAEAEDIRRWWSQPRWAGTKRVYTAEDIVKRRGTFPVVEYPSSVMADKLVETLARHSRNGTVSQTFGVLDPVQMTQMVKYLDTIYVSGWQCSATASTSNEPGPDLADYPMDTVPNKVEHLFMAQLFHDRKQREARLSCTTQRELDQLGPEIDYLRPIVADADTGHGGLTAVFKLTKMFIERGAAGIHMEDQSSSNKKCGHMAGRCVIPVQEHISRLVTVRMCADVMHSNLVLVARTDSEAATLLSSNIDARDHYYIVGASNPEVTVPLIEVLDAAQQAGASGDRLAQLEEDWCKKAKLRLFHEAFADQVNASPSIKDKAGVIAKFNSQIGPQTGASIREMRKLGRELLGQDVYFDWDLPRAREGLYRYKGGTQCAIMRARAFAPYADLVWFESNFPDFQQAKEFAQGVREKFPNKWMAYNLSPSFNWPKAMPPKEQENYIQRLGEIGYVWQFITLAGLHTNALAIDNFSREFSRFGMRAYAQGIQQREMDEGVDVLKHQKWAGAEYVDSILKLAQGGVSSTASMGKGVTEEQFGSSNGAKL

inhibition at 1000 µM (purified enzyme, concentration of 1 mM): 95%
Compound: O=C(O)C(=O)O [oxalate]

Compound: C=C(CC(=O)O)C(=O)O [itaconate]
inhibition at 1000 µM: 78%

inhibition at 10000 µM [1]: > 50%
Compound: C=C(OP(=O)(O)O)C(=O)O [phosphoenolpyruvate]

Compound: O=C(O)[C@H](O)[C@@H](O)[C@H](O)[C@H](O)COP(=O)(O)O [6-P-gluconate]
inhibition of ICL activity [1]: greater than 50%

From patent US5976844A, “Riboflavin-production process by means of micro-organisms with modified isocitratlyase activity” (BASF Aktiengesellschaft, priority 1995, dated 1999)
